The test system of one test is HL-60. Put plainly: Antiproliferative activity against human HL60 cells after 24 hrs by MTT assay. The test is classed as functional. On the technique in general: Tetrazolium assays rely on reduction of a dye to a coloured formazan, in cell work by metabolically active cells.
In a further test the test system is MDA-MB-435. The experiment in a line: Antiproliferative activity against human MDA-MB-435 cells after 24 hrs by MTT assay. The test is classed as functional.

Usually GI50 stands for the concentration at which growth is held to half of that of the control. Regarding `CC(/C=C/C(=O)NO)=C\[C@@H](C)C(=O)c1ccc(N(C)C)cc1` [TRICHOSTATIN], the GI50 with HL-60 worked out at 590 nM; in the test on MDA-MB-435, 1780 nM.

Values taken from ChEMBL document CHEMBL4145553, “Design, synthesis, and biological evaluation of novel amide and hydrazide based thioether analogs targeting Histone deacteylase (HDAC) enzymes” (Eur J Med Chem, 2018).
